# Source: patent publication US20030224978A1, “Compounds and methods for modulating apoptosis” (McGill University, priority 1996, published 2003)
# “Also recorded” adds a separate entry of the source. Positions of bridges follow the written chain, without caps; N, C: chain ends. Residues, ends and D or L forms follow the SMILES beside them.
# What was measured:
# [1] = tested on: HUVEC; assay type: cell-based, human; details: 3 h
# [2] = tested on: SKOV3 human ovarian cancer cells; assay: Induction of apoptosis / cell death in SKOV3 cells, in situ cell death detection kit; assay type: cell-based; details: 0.5 or 0.25 mg/mL, 48 hours
# Protocol: Direct assays of induction of apoptosis may be performed using any standard technique. For example, cadherin-expressing cells (e.g., SKOV3 human ovarian cancer cells) may be plated onto poly-L-lysine coated glass slides and cultured with 500 μg/mL of modulating agent for 24-48 hours. Cells may then be fixed and assayed for cell death using any of a variety of well known methods. For example, an in situ cell death detection kit may be purchased from Boehringer Mannheim (Laval, Quebec) and used according to the manufacturer's instructions.
# SKOV3 human ovarian cancer cells cultured in the presence of either N-Ac-CHAVC-NH2 (SEQ ID NO:10) or a control peptide (N-Ac-CHGVC-NH2; SEQ ID NO:20) in MEM with 10% FBS were plated onto poly-L-lysine coated glass slides. The cells were cultured for 24 or 48 hours and fixed with 4% paraformaldehyde for 30 minutes at room temperature. The slides were then washed three times with PBS and assessed for cell death. Cells were treated with 0.5 or 0.25 mg/mL of N-Ac-CHAVC-NH2 (SEQ ID NO:10) or the control N-Ac-CHGVC-NH2 (SEQ ID NO:20), as indicated. Cell death was measured as described by Gavrieli et al, J. Cell. Biol. 119:493-501, 1992 and using the In situ cell death detection kit (Boehringer Mannheim; Laval, Quebec).
# [3] = biological target: T1, N-cadherin (Gallus gallus, UniProt P10288); assay: Neurite outgrowth of mouse cerebellar neurons on 3T3 cells expressing N-cadherin (Example 2); assay type: cell-based
# T1 construct: expressed in transfected cells; host or cells: 3T3 fibroblasts
# T1 sequence (P10288 165-912): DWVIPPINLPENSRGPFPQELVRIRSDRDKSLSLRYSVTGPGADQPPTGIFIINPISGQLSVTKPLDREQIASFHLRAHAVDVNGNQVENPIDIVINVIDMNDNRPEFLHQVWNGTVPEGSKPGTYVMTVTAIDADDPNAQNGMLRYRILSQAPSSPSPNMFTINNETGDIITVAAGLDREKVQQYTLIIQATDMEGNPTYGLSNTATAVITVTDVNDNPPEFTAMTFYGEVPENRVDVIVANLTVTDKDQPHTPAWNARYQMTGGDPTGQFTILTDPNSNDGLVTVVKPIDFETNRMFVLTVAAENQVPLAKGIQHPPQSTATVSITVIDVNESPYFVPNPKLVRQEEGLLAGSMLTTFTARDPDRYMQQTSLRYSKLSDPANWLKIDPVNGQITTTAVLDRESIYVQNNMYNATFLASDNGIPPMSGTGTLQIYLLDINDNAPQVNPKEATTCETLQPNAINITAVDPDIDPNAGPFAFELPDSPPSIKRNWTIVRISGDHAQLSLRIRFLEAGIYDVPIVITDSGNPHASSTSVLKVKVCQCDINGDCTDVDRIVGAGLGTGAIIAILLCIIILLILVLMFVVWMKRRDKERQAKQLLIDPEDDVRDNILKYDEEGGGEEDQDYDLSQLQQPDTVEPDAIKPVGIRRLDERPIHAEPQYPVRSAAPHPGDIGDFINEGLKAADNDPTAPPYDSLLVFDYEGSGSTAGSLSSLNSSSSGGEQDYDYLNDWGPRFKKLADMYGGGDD
# Excerpt: Within a representative neurite outgrowth assay, neurons may be cultured on a monolayer of cells (e.g., 3T3) that express N-cadherin. […] For example, neurons may be cultured on monolayers of 3T3 cells transfected with cDNA encoding N-cadherin essentially as described by Doherty and Walsh, Curr. Op. Neurobiol. 4:49-55, 1994; Williams et al., Neuron 13:583-594, 1994; Hall et al., Cell Adhesion and Commun. 3:441-450, 1996; Doherty and Walsh, Mol. Cell. Neurosci. 8:99-111, 1994; and Safell et al., Neuron 18:231-242, 1997. Briefly, monolayers of control 3T3 fibroblasts and 3T3 fibroblasts that express N-cadherin may be established by overnight culture of 80,000 cells in individual wells of an 8-chamber well tissue culture slide. 3000 cerebellar neurons isolated from post-natal day 3 mouse brains may be cultured for 18 hours on the various monolayers in control media (SATO/2%FCS), or media supplemented with various concentrations of the modulating agent or control peptide. The cultures may then be fixed and stained for GAP43 which specifically binds to the neurons and their neurites. The length of the longest neurite on each GAP43 positive neuron may be measured by computer assisted morphometry.
# A modulating agent that modulates N-cadherin-mediated cell adhesion may inhibit or enhance such neurite outgrowth. Under the conditions described above, the presence of 500 μg/mL of a modulating agent that disrupts neural cell adhesion should result in a decrease in the mean neurite length by at least 50%, relative to the length in the absence of modulating agent or in the presence of a negative control peptide. Alternatively, the presence of 500 μg/mL of a modulating agent that enhances neural cell adhesion should result in an increase in the mean neurite length by at least 50%.
# Neurons were cultured on monolayers of 3T3 cells transfected with cDNA encoding N-cadherin essentially as described by Doherty and Walsh, Curr. Op. Neurobiol. […] The length of the longest neurite on each GAP43 positive neuron was then measured by computer assisted morphometry.
# [4] = tested on: OVCAR-3; assay: Disruption of human ovarian cancer cell (OVCAR-3) adhesion; assay type: cell-based; details: for OVCAR3 cell morphology: 24 hours
# Protocol: The human ovarian cancer cell line OVCAR-3, which expresses E-cadherin, was used in these experiments. Cells were cultured in RPMI supplemented with insulin and containing 20% FCS. Cells were grown in T-250 culture flasks and maintained by periodic subculturing. Cells were harvested from flasks and seeded in individual wells of 96-well culture dishes (surface area of each well was 0.32 cm^2) at a density of 50,000 cells per well in 0.1 ml media containing the cyclic peptides (at concentrations of 1, 0.1, or 0.01 mg/ml). Media control wells were also established. Cultures were evaluated periodically by microscopic examination under both bright field and phase contrast conditions, and were maintained for 48 hours.
Structure (SMILES),IC50 [1] [µM],cell death of SKOV3 cells [2],"effect on neurite outgrowth on 3T3 cells expressing N-cadherin ([3]; 50 μg/mL, dose-response study)","effect on neurite outgrowth on 3T3 cells expressing N-cadherin ([3]; 500 μg/mL, 18 hours)",OVCAR3 cell morphology ([4]; 100 μg/ml),OVCAR3 cell morphology ([4]; 1 mg/ml),"effect on OVCAR-3 adhesion ([4]; 1, 0.1, or 0.01 mg/ml, up to 48 hours)"
"CC(=O)N[C@H]1CSSC[C@@H](C(N)=O)NC(=O)[C@H](C(C)C)NC(=O)[C@H](C)NC(=O)[C@H](Cc2c[nH]cn2)NC1=O [N-Ac-CHAVC-NH2, N-Ac-Cys-His-Ala-Val-Cys-NH2]",> 100,the cells are dead; also recorded: cell death,significantly inhibited neurite outgrowth,completely inhibited neurite outgrowth,,,
"CC(=O)N[C@H]1CSSC[C@@H](C(N)=O)NC(=O)[C@H](CO)NC(=O)[C@H](C(C)C)NC(=O)[C@H](C)NC(=O)[C@H](Cc2c[nH]cn2)NC1=O [N-Ac-CHAVSC-NH2, N-Ac-Cys-His-Ala-Val-Ser-Cys-NH2] (Ac-CHAVSC-NH2; disulfide 1-6)",,,,,retract form one another,round up,disrupted OVCAR-3 adhesion
"CC(=O)N[C@H]1CSSC[C@@H](C(N)=O)NC(=O)[C@H](C(C)C)NC(=O)CNC(=O)[C@H](Cc2c[nH]cn2)NC1=O [N-Ac-CHGVC-NH2, reference compound]",> 100,,,had no effect,,,
